Data taken from patent US20070197591A1, “USE OF PALIPERIDONE FOR THE TREATMENT OF A MENTAL DISORDER IN A PSYCHIATRIC PATIENT WITH REDUCED HEPATIC FUNCTION” (priority 2005, published 2007).

Experiments:
[1] = Plasma protein binding / unbound fraction of paliperidone and its enantiomers; assay type: in vitro ADME, human
From the text: Objectives: The primary objective of this study was to investigate the single-dose pharmacokinetics of immediate-release (IR) paliperidone, after oral administration, in subjects having moderate hepatic impairment (“hepatically-impaired subjects”) compared with subjects having normal hepatic function (“healthy subjects”). The secondary objective was to document the plasma protein binding and disposition of the enantiomers of paliperidone. In addition, the tolerability and safety profile of IR paliperidone was compared between hepatically impaired subjects and healthy subjects. Criteria for Evaluation: Pharmacokinetics: Plasma and urine concentrations of the paliperidone enantiomers (+) R078543 and (−) R078544 were determined using an LC-MS/MS method. Concentrations of paliperidone were calculated as the sum of the enantiomer concentrations. In addition, serum and urine concentrations of creatinine were determined for the calculation of CLCR. The protein binding and unbound fraction was determined for the 2 paliperidone enantiomers. The unbound fraction for paliperidone was calculated.

[2] = Safety and tolerability, single oral 1-mg ^14C-paliperidone in healthy men; assay type: in vivo, human
Procedure: Safety: Evaluation was based on the incidence, type, and severity of all treatment-emergent adverse events, and on change from screening to the end of the study in clinical laboratory results, vital sign measurements, and postural changes in blood pressure and heart rate.
Safety: The number of subjects with adverse events was summarized. Summary statistics were calculated for clinical laboratory values. Other safety data were listed by individual sect. Changes in blood pressure and heart rate measurements were also presented graphically.

clinical = experiment: clinical; parameters: species or system human; conditions: human, in vivo
From the text: Objectives: to investigate the metabolic pathways of paliperidone and excretion of paliperidone and its metabolites in healthy adult male subjects, both CYP2D6 poor and extensive metabolizers, after administration of a single 1-mg oral dose of ^14C-paliperidone. In addition, to evaluate the safety and tolerability of paliperidone, as well as the relationship between genotypes (CYP2D6, CYP3A4, CYP3A5, UGT1A1, and UGT1A6) and exposure to paliperidone and its metabolites.
Methodology: Single-center, single-dose open-label study of the absorption, metabolism, and excretion (AME) of paliperidone in healthy men (3 extensive and 3 poor metabolizers based on CPY2D6 phenotype). […] Each subject received a single oral dose of ^14C-paliperidone with total radioactivity below […] (16 μCi). Blood samples for plasma pharmacokinetic profile were obtained immediately before study drug administration and 0.5, 1, 1.5, 3, 6, 12, 16, 36, 48, 72, 96, 120, 144 and 168 hours postdose. Blood samples were obtained 2, 4, 8, and 24 hours postdose for determination of ^14C in whole blood. Samples for determination of serum creatinine were obtained 2, 4, 8, and 24 hours postdose. Urine was collected immediately prior to drug administration and from 0-4, 4-8, 8-12, 12-16, 16-24, 24-36, 36-48, 48-72, 96-120, 120-144, and 144-168 hours after study drug administration. Fecal samples were colleted per each stool, once before study drug administration and in the period from 0-168 hours after study drug administration. Collections of urine and feces (per 24 hours) were to continue beyond 168 hours, to a maximum of 336 hours (Day 15) for subjects who excrete radioactivity slowly (2 latest 24-hour urine collections each >2% of total radioactive dose) or have <7 feces stool samples over the 0 to 168-hour period. ^14C radioactivity was measured in plasma, urine, and feces. Aliquots of the 0- through 24-hour urine collections were analyzed for cretinine. Plasma concentrations of paliperidone and risperidone were determined by means of a validated LC-MS/MS method. The ^14C-labeled moiety in plasma and urine was determined by liquid scintillation counting. For all plasma samples, the lower limits of quantification for paliperidone and risperidone were 0.100 ng/mL. For all plasma and urine samples the lower limits of quantification for ^14C-palieridone was 72 dpm/mL (=2.0 n g-eq/mL).
Number of Subjects (Planned and Analyzed): Six healthy men, 3 extensive and 3 poor metabolizers based on CYP2D6 phenotype were to participate in the study. Five subjects, 3 extensive and 2 poor metabolizers, received a single dose of ^14C-paliperidone, completed the study (i.e., completed all assessments through Day 8) and were considered valuable for safety (the Safety Analysis Set), as well as for pharmacokinetics.
Test Product, Dose and Mode of Administration Batch No.: Single oral 0.988-mg dose of ^14C-paliperidone, oral solution (aqueous formulation at a final concentration of 0.0984 mg/mL). Batch No.: unlabeled paliperidone oral solution: ZR076477EIA031 (manufacturing date: 23 Apr. 2003, retest date: 23 Oct. 2004): ^14C-paliperidone: 1763 (expiration date: not applicable)
Criteria for Evaluation: Pharmacokinetics: Plasma paliperidone. ^14C radioactivity and metabolite profiles were determined. Plasma Cmax, tmax, AUClast, AUC24, AUC∞, λZ, t1/2term, CL/F of ^14C and paliperidone were estimated by non-compartmental analysis. Based on the individual urine excretion data and on the serum creatinine concentrations, Ae, Ae, % dose, CLR, CLR,24h and CLer and paliperidone and CLGFR, and CLact of paliperidone were estimated. The excretion half-life of ^14C in urine was also estimated based on excretion rate-time profiles.
Statistical Methods: Pharmacokinetics: Plasma concentrations of ^14C and paliperdone as well as estimates for pharmacokinetic parameters were listed and graphically presented, and the excretion analysis of total radioactivity in plasma, urine and feces were summarized. […]

[3] = Hepatically-Impaired Subjects (n = 10; paliperidone n = 8)

Unbound Fraction ([1]; Healthy Subjects (n = 10))	Unbound Fraction [1, 3]	Compound	deaths, serious adverse events ([2]; 5 healthy men, single oral 1-mg dose)	changes in laboratory test results ([2]; in vivo, po)	overall safety and tolerability ([2]; in vivo, po)	subjects with treatment-emergent adverse events ([2]; in vivo, po)	AUC∞ (clinical) [ng-eq.h/mL]
0.385 ± 0.0416	0.457 ± 0.0504	Cc1nc2n(c(=O)c1CCN1CCC(c3noc4cc(F)ccc34)CC1)CCCC2O (single isomer, unassigned; (-)) [(−) R078544]	–	–	–	–	–
0.215 ± 0.0469	0.306 ± 0.0687	Cc1nc2n(c(=O)c1CCN1CCC(c3noc4cc(F)ccc34)CC1)CCC[C@H]2O [(+) R078543]	–	–	–	–	–
–	–	^14C-paliperidone	no deaths, no serious adverse events	no clinically relevant changes	safe and well tolerated	Two of the 5 subjects	175
